Experimental data: ChEMBL document CHEMBL3867460, “Identification of 4-(2-furanyl)pyrimidin-2-amines as Janus kinase 2 inhibitors” (Bioorg Med Chem, 2017)

Columns and labels:
[1] = molecular target: T1, Tyrosine-protein kinase JAK3 (Homo sapiens, UniProt P52333)
T1 sequence (P52333 whole entry): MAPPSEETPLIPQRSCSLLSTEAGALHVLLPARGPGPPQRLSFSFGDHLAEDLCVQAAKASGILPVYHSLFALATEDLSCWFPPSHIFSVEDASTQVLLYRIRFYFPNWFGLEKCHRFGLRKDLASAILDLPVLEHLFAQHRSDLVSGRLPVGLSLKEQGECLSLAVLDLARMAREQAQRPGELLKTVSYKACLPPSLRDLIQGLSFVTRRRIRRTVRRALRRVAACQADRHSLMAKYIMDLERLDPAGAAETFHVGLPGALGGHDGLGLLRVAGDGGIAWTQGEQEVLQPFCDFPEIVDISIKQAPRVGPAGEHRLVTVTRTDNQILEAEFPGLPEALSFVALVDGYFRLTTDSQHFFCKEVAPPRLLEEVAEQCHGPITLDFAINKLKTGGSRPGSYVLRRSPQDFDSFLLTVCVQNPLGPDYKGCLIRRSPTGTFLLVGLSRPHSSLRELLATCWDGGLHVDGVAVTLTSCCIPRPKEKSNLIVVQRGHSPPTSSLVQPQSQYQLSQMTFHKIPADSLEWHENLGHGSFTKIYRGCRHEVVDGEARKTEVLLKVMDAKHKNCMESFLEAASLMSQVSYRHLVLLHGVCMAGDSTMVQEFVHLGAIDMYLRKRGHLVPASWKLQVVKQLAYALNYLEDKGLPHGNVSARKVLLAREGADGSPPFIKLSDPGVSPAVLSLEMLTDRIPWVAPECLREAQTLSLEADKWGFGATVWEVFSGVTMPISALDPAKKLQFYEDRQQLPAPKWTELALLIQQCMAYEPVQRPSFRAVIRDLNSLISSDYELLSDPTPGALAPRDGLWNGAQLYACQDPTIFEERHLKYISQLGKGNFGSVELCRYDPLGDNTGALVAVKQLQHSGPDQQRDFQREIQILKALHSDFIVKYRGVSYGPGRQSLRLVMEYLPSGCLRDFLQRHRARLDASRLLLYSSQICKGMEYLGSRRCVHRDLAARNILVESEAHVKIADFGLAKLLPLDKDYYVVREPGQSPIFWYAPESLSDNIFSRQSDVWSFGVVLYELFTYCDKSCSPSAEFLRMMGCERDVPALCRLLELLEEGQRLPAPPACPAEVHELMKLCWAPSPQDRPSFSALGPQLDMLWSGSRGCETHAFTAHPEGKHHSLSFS
Description: Inhibition of GST-tagged recombinant human cytoplasmic JAK3 expressed in baculovirus using TK-substrate-biotin as substrate preincubated for 5 mins followed by substrate addition after 30 mins by HTRF assay

Homo sapiens = species: Homo sapiens; experiment: Selectivity ratio of IC50 for human JAK3 expressed in baculovirus to IC50 for human JAK2 expressed in baculovirus
[2] = molecular target: Tyrosine-protein kinase SYK (Homo sapiens, UniProt P43405); experiment: Inhibition of SYK (unknown origin)
[3] = molecular target: Tyrosine-protein kinase JAK2 (Homo sapiens, UniProt O60674)
Description: Inhibition of GST-tagged recombinant human JAK2 expressed in baculovirus using TK-substrate-biotin as substrate preincubated for 5 mins followed by substrate addition after 30 mins by HTRF assay

[4] = molecular target: Tyrosine-protein kinase JAK2 (Homo sapiens, UniProt O60674, V617F)
Chain of Tyrosine-protein kinase JAK2 (Homo sapiens, UniProt O60674, V617F) (O60674 whole entry V617F): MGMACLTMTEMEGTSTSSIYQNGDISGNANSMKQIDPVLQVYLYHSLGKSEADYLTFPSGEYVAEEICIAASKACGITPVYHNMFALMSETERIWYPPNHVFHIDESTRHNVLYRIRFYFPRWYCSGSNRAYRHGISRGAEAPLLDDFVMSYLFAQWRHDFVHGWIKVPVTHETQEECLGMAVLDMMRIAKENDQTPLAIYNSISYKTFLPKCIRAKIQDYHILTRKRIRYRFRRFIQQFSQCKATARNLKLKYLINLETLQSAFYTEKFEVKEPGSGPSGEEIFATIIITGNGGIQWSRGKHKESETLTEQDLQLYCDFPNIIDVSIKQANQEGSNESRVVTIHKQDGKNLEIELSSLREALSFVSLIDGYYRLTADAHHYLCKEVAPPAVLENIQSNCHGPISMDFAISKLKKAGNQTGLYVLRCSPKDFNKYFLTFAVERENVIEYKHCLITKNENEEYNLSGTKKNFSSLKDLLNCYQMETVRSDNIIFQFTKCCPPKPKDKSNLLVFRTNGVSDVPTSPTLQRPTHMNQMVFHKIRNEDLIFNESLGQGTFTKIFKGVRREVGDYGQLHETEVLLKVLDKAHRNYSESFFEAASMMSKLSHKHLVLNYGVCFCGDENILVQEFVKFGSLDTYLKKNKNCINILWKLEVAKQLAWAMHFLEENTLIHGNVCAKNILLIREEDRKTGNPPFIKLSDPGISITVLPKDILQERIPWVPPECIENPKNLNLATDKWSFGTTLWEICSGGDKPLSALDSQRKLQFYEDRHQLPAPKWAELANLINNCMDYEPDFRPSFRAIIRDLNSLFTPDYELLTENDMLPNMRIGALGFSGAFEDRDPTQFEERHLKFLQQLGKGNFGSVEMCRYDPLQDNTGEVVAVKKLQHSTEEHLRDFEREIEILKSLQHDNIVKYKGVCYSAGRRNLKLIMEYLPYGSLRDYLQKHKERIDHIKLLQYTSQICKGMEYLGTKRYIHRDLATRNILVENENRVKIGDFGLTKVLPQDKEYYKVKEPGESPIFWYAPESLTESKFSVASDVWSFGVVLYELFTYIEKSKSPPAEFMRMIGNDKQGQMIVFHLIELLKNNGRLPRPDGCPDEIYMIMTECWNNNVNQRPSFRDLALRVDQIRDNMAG

Chain of Tyrosine-protein kinase JAK2 (Homo sapiens, UniProt O60674) (O60674 whole entry): as the sequence (O60674 whole entry V617F) above, with F617V counted along it

Row | Structure (SMILES) | IC50 [1] [nM] | Ratio IC50 (Homo sapiens) | IC50 [2] [nM] | IC50 [3] [nM] | IC50 [4] [µM]
1 | Cc1cnc(Nc2ccc(N3CCOCC3)cc2)nc1-c1cc2cc(COCC(F)(F)F)ccc2o1 | 836 | 32.5 |  | 25.7 | 
2 | COc1cc(Nc2ncc(F)c(-c3cc4c(o3)CCN(S(C)(=O)=O)C4)n2)cc(OC)c1OC | 178 | 18.9 |  | 9.4 | 
3 | Cc1cnc(Nc2ccc(/C=C/C(=O)NO)cc2)nc1-c1cc2ccccc2o1 | 1580 | 7 |  | 226 | 
4 | CC1CC(C)CN(c2ccc(Nc3ncc(C(F)(F)F)c(-c4cc5ccc(C#N)cc5o4)n3)cc2)C1 (stereo not drawn) | 5170 | 0.7 |  | 7090 | 
5 | CCOC(=O)COc1ccc(Nc2ncc(C)c(-c3cc4ccccc4o3)n2)cc1 | 1200 | 3.7 |  | 324 | 
6 | N#Cc1ccc2oc(-c3nc(Nc4ccc(N5CCNCC5)cc4)ncc3C(F)(F)F)cc2c1 | 202 | 1.5 |  | 137 | 
7 | CS(=O)(=O)N1CCc2oc(-c3nc(Nc4ccc(OCCN5CCCC5)cc4)ncc3F)cc2C1 | 176 | 3.2 |  | 55.4 | 
8 | CCOC(=O)COc1cccc(Nc2ncc(C)c(-c3cc4ccccc4o3)n2)c1 | 87.6 | 4.6 |  | 18.9 | 
9 | Cc1cnc(Nc2ccc(OCC(=O)O)cc2)nc1-c1cc2ccccc2o1 | 359 | 21.7 |  | 16.6 | 

Continued, values first:

Row | IC50 [1] [nM] | Ratio IC50 (Homo sapiens) | IC50 [2] [nM] | IC50 [3] [nM] | IC50 [4] [µM] | Structure (SMILES)
10 | 23.2 | 33.1 | 49.8 | 0.7 | 1.25 | Cc1cnc(Nc2ccc(N3CCOCC3)cc2)nc1-c1cc2c(o1)CCN(S(C)(=O)=O)C2
11 | 140 | 10.6 |  | 13.2 | 5.52 | N#CCC(=O)N1CCc2oc(-c3ccnc(Nc4ccc(N5CCOCC5)cc4)n3)cc2C1
12 | 183 |  |  |  |  | Cc1cnc(Nc2ccc(N3CCOCC3)cc2)nc1-c1cc2ccccc2o1
13 | 136 | 2.5 |  | 53.7 | 7.44 | CN1CCN(c2ccc(Nc3nccc(-c4cc5c(o4)CCN(C(=O)CC#N)C5)n3)cc2)CC1
14 | 501 | 3.1 |  | 164 | 1.26 | CS(=O)(=O)N1CCc2oc(-c3ccnc(Nc4ccc(OCCN5CCCC5)cc4)n3)cc2C1
15 | 204 |  |  |  |  | CN1CCN(c2ccc(Nc3nccc(-c4cc5c(o4)CCN(S(C)(=O)=O)C5)n3)cc2)CC1
16 | 226 | 5.3 |  | 42.9 |  | CS(=O)(=O)N1CCc2oc(-c3ccnc(Nc4ccc(N5CCOCC5)cc4)n3)cc2C1
17 | 364 | 35 |  | 10.4 | 3.09 | Cc1cnc(Nc2ccc(N3CCOCC3)cc2)nc1-c1cc2cc(C#N)ccc2o1
